Laboratory results published in BindingDB's records for doi:10.1016/s0960-894x(02)00385-2 (National Institute of Diabetes and Digestive and Kidney …, 2002).

Biological target: T1, Mycothiol S-conjugate amidase (Mycobacterium tuberculosis (strain ATCC 25618 / H37Rv), UniProt P9WJN1)
T1 sequence (P9WJN1 whole entry): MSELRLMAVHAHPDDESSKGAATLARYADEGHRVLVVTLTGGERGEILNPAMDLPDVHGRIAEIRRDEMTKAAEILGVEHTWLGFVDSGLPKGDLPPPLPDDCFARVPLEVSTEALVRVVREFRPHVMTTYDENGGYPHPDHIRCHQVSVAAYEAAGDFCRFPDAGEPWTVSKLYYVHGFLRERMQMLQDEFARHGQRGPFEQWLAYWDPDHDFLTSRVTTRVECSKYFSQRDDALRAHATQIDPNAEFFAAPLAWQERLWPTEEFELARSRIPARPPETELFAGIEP
Assay: ChEBML_140808
Description: Inhibition of Mycothiol -S-conjugate amidase (MCA) from mycobacterium tuberculosis

| Compound | IC50 [µM] |
| --- | --- |
| O=NC(Cc1ccc(O)c(Br)c1)C(=O)NCCSSCCNC(=O)C(Cc1ccc(O)c(Br)c1)N=O (configuration not stated) [3-(3-bromo-4-hydroxy-phenyl)-N-[2-(2-{3-(3-bromo-4-hydroxy-phenyl)-2-[hydroxyimino]-propionylamino}-ethyldisulfanyl)-ethyl]-2-[hydroxyimino]-propionamide] | 2.8 |
| N=C(N)CCCCNC(=O)C(Cc1cc(Br)c(OCCCN)c(Br)c1)N=O (configuration not stated) [3-[4-(3-Amino-propoxy)-3,5-dibromo-phenyl]-N-(4-carbamimidoyl-butyl)-2-[(E)-hydroxyimino]-propionamide] | 2.8 |
